# Results from US20140343095A1, “Methods of Diagnosing and Treating Multiple Sclerosis” (The Brigham and Women's Hospital, Inc., priority 2009, published 2014).
# Entries after “also recorded” stand apart in the source; their conditions may differ.
# How the values were obtained:
# PARP-1 [1] = target: T1, PARP-1 (Homo sapiens, UniProt P09874); conditions: Diestel et al. 2003; cited from earlier work
# Target sequence in this assay (P09874 whole entry, species assumed): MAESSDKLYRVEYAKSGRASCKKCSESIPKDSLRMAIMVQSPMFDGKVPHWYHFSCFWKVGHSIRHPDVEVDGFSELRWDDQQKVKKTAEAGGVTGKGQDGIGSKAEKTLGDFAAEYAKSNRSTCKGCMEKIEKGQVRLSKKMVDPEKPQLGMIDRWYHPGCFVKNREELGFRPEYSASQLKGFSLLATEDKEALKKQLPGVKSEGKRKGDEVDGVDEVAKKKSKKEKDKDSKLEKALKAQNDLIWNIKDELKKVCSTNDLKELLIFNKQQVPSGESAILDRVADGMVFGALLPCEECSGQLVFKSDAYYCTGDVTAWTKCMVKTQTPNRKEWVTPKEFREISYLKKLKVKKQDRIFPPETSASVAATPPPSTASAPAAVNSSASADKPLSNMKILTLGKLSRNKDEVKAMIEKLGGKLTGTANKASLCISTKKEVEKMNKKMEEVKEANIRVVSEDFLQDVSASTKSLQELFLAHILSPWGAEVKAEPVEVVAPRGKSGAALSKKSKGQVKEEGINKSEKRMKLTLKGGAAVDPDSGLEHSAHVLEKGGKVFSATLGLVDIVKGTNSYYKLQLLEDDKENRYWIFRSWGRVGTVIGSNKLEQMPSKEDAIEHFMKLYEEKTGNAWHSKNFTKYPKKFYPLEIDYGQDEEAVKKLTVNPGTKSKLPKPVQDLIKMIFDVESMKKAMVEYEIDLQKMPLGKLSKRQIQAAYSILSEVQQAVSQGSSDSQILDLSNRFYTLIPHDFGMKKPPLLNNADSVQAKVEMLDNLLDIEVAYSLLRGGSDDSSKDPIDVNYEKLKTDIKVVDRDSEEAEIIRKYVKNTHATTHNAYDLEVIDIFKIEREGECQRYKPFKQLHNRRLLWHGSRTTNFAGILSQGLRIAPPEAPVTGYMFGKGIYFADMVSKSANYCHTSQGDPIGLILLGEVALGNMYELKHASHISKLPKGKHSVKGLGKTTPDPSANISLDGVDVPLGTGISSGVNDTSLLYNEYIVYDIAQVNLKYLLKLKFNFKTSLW
# PARP-1 [2] = target: T2, PARP-1 (Mus musculus, UniProt P11103); test: Cellular PARP-1 activity in microglia, macrophages or astrocytes; assay type: cell-based; set-up: host or cells: C8B4 microglia, C8-D1A astrocytes, Raw 264.7 macrophages
# Experimental: 5A, a bar graph showing the time course of microglial PARP-1 activation by 15-oxysterols or 7-KC. PARP-1 activity is shown as Mean±SEM. […] (Mean±SEM) 5C, a bar graph showing activation of microglial PARP-1 by 15-HC in the presence of kinase inhibitors (Mean±SEM).
# 6A, a set of three bar graphs showing PARP-1 activity in microglia, macrophages or astrocytes activated with 15-HC in the presence of blocking antibodies to TLR2 or TLR4, or isotype controls (Mean±SEM).
# PARP-1 activity was measured using PARP HT Universal Colorimetric Kit (Trevigen, MD, USA), following manufacturer instructions.
# Cells were cultured with DMEM supplemented with 10% fetal bovine serum, 2 mM L-glutamine, 25 mM HEPES, and 1 mM sodium pyruvate. Cells in logarithmic growth were treated with 1 μg/ml of 15-HC for 1, 5, 15, and 30 minutes in serum-free medium. Blocking antibodies (Ebioscience, San Diego, Calif., USA) were added in some experiments at a final concentration of 10 ug/ml.
# PARP-1 [3] = target: T1, PARP-1; test: PARP-1 enzymatic activity in human PBMCs (PARP HT Universal Colorimetric Kit); assay type: cell-based; set-up: endogenous in cells; host or cells: human PBMCs / monocytes / dendritic cells / T and B cells from healthy controls and MS patients; conditions: healthy controls, 1 ug/ml 15-HC
# Experimental: PARP-1 enzymatic activity (10A) and TNFalpha and CCL2 (10B) of PBMCs incubated with 15-HC alone, or in combination with AIQ, blocking antibodies to TLR2 or IC control.
# To investigate whether the TLR2/PARP-1 axis is functional in human we activated PBMCs from healthy controls with 15-HC, in the presence or not of PARP-1 or TLR2 inhibitors.
# Target sequence in this assay (P09874 whole entry): as the sequence (P09874 whole entry, species assumed) above
# splenocytes = test: Adaptive encephalitogenic recall response of splenocytes from treated mice (proliferation, cytokines); assay type: in vivo, mouse; conditions: AIQ vs control-treated mice
# Experimental: FIG. 7 is a set of eight bar graphs showing that the adaptive encephalitogenic immune response is not affected by the inhibition of PARP-1. Splenocytes prepared from control or AIQ-treated mice were activated in vitro with MOG35-55 (right column) or antibodies to CD3 (left column) and the cytokines levels were tested on the supernatant at 48 hours. Top row, IFN-gamma Second row, IL-17. Third row, IL-10. Bottom row, TGF-beta.
# Splenocytes and lymph node cells were cultured in X-VIVO medium and plated at 5×10^5 cells per well in the presence of MOG35-55 for 72 hours. During the last 16 hours, cells were pulsed with 1 μCi of [^3H]-thymidine (PerkinElmer) followed by harvesting on glass fiber filters and analysis of incorporated [^3H]-thymidine in a beta-counter (1450 Microbeta, Trilux; PerkinElmer). Supernatants were collect after 48 h of culture for cytokine measurements by ELISA.
# PARP-1 [4] = target: T2, PARP-1
# Experimental: Microglia and astrocyte activation have been linked to the progressive phase of experimental SPMS (Basso et al., J Clin Invest 118, 1532-1543 (2008)), thus the activation of PARP-1 was analyzed in the CNS of NOD mice during the progressive phase of EAE.
# Spinal cord tissue samples from MOG-immunized NOD mice with or without AIQ treatment were collected at day 55, fixed in 4% paraformaldehyde, cryoprotected in 20% sucrose, and frozen in OCT. Spinal cord frozen sections were cut at 10 μm and processed for histological analysis, immunohistochemistry, or immunofluorescence. […] For image analysis, 3 or 4 lumbar spinal cord sections were selected according to regional landmarks from 4 different animals per group. Image analysis was performed using the software ImageJ (NIH). For quantification, level of labeling “threshold” was used as a cut-off to determine positive or negative staining Immunofluorescence was performed using anti-Iba-1 (Wako, VA, USA), anti-GFAP (BD Bioscience, MA, USA) and anti PAR (Trevigen, MD, USA)
# [5] = system: microglia, macrophages or astrocytes; test: TNF-α, CCL-2 and NO secretion by microglia, macrophages or astrocytes; assay type: cell-based, mouse; conditions: co-incubation with 15-HC
# Experimental: FIGS. 4A-D show the results of activation of microglia, macrophages and astrocytes by 15-HC. 4A, a bar graph showing PARP-1 activity in a cell-free system where recombinant PARP-1 was incubated with DNA which as been pretreated with 15-HC or 7-KC. Non-pretreated DNA was used as a negative control and ssb-DNA as a positive control. Data is shown as Mean±SEM. 4B, a pair of bar graphs showing PARP-1 activity measured in microglia, macrophages or astrocytes incubated with 15-HC or 7-KC. The data is shown as the fold of change between vehicle and lipid-treated cells (Mean±SEM). 4C, a pair of bar graphs showing percent inhibition of PARP-1 activity in microglia, macrophages or astrocytes activated with 15-HC or 7-KC […] in the presence of 5-AIQ. 4D, a table showing levels of TNF-α, CCL-2 and NO secretion by 15-HC or 7-KC treated microglia, macrophages or astrocytes (Mean±SEM).
# The effect of 15-HC on the activity of cellular PARP-1 was then investigated. […] Thus, 15-HC activates microglia, macrophages and astrocytes through a PARP-1-dependent mechanism.
# [6] = system: NOD mice (experimental SPMS); test: NOD experimental model of SPMS (MOG35-55 EAE), clinical score and spinal cord histology; assay type: in vivo, mouse
# Experimental: 2A, a line graph showing the results of AIQ treatment when experimental SPMS was induced in ten-week old NOD mice by subcutaneous immunization with […] of MOG35-55 in CFA and Pertussis toxin (150 ng per mouse) given at the time of immunization and 48 hours later. AIQ (3 mg/Kg body weight) was given daily beginning on day 0, n=10 animals per group. A control group was treated with PBS. 2B, a pair of line graphs showing the results of regression analysis of EAE progression (top panel—acute phase, bottom panel—chronic phase). 2C, four images from histopathological analysis of EAE in NOD mice.
# This experimental model of SPMS was used to analyze the levels of 15-oxysterols at peak of the acute EAE attack (day 18) and during the progressive phase of EAE (day 55).
# 150 ng/mouse of pertussis toxin (Sigma) were administered intraperitoneally on days 0 and 2. Clinical signs of EAE were assessed according to the following score: 0, no signs of disease; 1, loss of tone in the tail; 2, hind limb paresis; 3, hind limb paralysis; 4, tetraplegia; 5, moribund.
# Image analysis was performed using the software ImageJ (NIH).
# PARP-1 [7] = target: T1, PARP-1; test: FACS-based detection of PARP-1 activity (PAR staining) in human monocytes / PBMCs; assay type: cell-based; set-up: endogenous in cells; host or cells: human PBMCs / monocytes / dendritic cells / T and B cells from healthy controls and MS patients; conditions: human monocytes activated by 15-HC
# Experimental: FIGS. 11A-B are show the results of FACS-based detection of PARP-1 activity. 11A. a set of five histograms showing PAR staining (as detected by FACS) of PBMCs incubated with 15-HC alone, or in combination with AIQ, blocking antibodies to TLR2 (TLR2 BL), or IC control (TLR2 IC). 11B, a line graph showing the correlation of PAR staining as detected by FACS with PARP-1 enzymatic activity detected on PBMCs activated with different concentration of 15-HC.
# 14A is a set of fifteen histograms showing PAR staining of PBMCs taken from HC (left column), RRMS (center column) or SPMS (right column) patients and unstimulated (top row) or activated with 15-HC alone (second row), or in combination with AIQ (third row), blocking antibodies to TLR2 (fourth row) or IC control (bottom row). 14B is a bar graph showing the mean fluorescence intensity (MFI)±SD of 5 samples/group from the histograms in 14A.
# 15A is a set of 24 histograms showing PAR staining of PBMCs taken from HC (left column), RRMS (center column) or SPMS (right column) patients and unstimulated (top row) or activated with pgLPS (second row), polyIC (third row), ecLPS (fourth row), flagellin (row 5), imiquimod (row 6), ssRNA (row 7) or CpG (row 8). 15B is a bar graph showing the mean fluorescence intensity (MFI)±SD of 5 samples/group from the histograms in […].
# A new FACS-based method was developed to detect PARP-1 activation based on the intracellular detection of the PARP-1 product PAR with specific antibodies. Briefly, the cells were incubated with antibodies to CD16/32 to block unspecific antibody binding, and then stained for surface markers. After washing, the cells were permeabilized with Fix/Perm (BD), and then stained with rabbit anti-PAR antibodies (or control rabbit IgG) for 30′ at 4° C., followed by anti-rabbit PE for 30′ at room temperature. The samples were then analyzed by FACS.
# Target sequence in this assay (P09874 whole entry): as the sequence (P09874 whole entry, species assumed) above
# [8] = NOD mice, AIQ 3 mg/Kg body weight daily from day 0, vs PBS
# [9] = spinal cord sections, day 55, progressive phase of NOD EAE
# T2 sequence (P11103 whole entry): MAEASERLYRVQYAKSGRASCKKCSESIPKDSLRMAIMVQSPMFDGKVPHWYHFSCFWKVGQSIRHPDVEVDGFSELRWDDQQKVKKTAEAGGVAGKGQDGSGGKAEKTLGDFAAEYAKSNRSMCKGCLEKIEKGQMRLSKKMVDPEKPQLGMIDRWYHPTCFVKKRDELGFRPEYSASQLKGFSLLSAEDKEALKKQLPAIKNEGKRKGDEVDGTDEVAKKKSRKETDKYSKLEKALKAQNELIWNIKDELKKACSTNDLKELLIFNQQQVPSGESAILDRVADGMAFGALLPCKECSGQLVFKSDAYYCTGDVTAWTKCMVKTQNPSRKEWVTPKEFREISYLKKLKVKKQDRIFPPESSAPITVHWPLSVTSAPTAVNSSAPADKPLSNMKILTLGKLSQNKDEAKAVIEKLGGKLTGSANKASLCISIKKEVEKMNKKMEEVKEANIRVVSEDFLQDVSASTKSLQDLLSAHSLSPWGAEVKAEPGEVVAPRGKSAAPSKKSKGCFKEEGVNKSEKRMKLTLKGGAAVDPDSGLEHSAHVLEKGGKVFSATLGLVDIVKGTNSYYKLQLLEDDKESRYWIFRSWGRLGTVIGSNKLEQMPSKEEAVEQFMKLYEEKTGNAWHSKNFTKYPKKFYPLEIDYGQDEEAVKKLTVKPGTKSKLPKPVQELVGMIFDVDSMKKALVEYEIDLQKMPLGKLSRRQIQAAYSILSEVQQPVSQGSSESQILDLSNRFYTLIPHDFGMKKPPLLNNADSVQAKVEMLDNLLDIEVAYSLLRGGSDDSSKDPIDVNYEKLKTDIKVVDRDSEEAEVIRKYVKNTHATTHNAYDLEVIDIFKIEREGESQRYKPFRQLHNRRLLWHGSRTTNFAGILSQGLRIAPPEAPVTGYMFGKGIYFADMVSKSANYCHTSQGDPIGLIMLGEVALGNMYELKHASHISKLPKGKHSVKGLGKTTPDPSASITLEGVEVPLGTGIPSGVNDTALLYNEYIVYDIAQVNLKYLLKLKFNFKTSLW
compound,measurement,setting,value
"CC(C)CCC[C@@H](C)[C@H]1CC[C@H]2[C@@H]3C(=O)C=C4C[C@@H](O)CC[C@]4(C)[C@H]3CC[C@]12C [7-KC, 7-ketocholesterol, reference compound]",activation of the nuclear enzyme PARP-1,PARP-1 [1],activate
same,incubation time resulting in activation of PARP-1,PARP-1 [2]; macrophages or microglia,longer incubation times were required
"Nc1cccc2c(=O)[nH]ccc12 [AIQ, 5-aminoisoquinolinone]",inhibition of 15-HC-induced PARP-1 enzymatic activity in human PBMCs,PARP-1 [3],can be inhibited
same,proliferative recall response of splenocytes,splenocytes; activation with MOG35-55 or antibodies to CD3,No statistical differences
same,profile of cytokine secretion of splenocytes,"splenocytes; supernatants at 48 h, IFN-gamma, IL-17, IL-10, TGF-beta",no differences
same,PARP-1 activity in CNS CD11b+ cells,PARP-1 [4]; cells isolated at day 55 from AIQ or control-treated mice,inhibition
same,PARP-1 activation in CNS (PAR staining),"PARP-1 [4]; progressive phase of NOD EAE, data not shown",decreased
same,"inhibition of 15-HC-induced secretion of NO, CCL-2 and TNF-α",[5],could be inhibited
same,clinical signs of progressive EAE,[6]; [8],significant inhibition
same,effect on the acute phase of EAE,[6]; [8],little or no effect
same,axonal loss (Bielschowsky's silver staining),[6]; [9],significant decrease; also recorded: significantly reduced
same,demyelination (luxol fast blue),[6]; [9],significant decrease; also recorded: significantly reduced
same,blockade of 15-HC-induced PAR staining (FACS),PARP-1 [7],could be blocked
same,inhibition of PARP-1 activation by 15-HC,"PARP-1 [2]; microglia, macrophages or astrocytes activated with 15-HC",could be inhibited
